# Source: patent US9809623B2, “α4β7 peptide monomer and dimer antagonists” (Protagonist Therapeutics, Inc., priority 2014, dated 2017)
# Numbered stars: 1 amine (or outer) side, 2 acyl side, 3 side chain; on linkers, the order of the positions; unused ones are H or OH. Bridge positions count the residues as written; N and C are the ends. Square brackets hold non-standard residues; d marks the D form. Peptide text beside a SMILES is read from it. I, II: the chains in the order shown. 1Nal = N[C@@H](Cc1cccc2ccccc12)C(=O)O; Diglycolyl = O=C(COCC(=O)[*:2])[*:1]; NMeR = CN[C@@H](CCCNC(=N)N)C(=O)O; Tic = O=C(O)[C@@H]1Cc2ccccc2CN1; Pen = CC(C)(S)[C@H](N)C(=O)O
# Molecular target: α4β7 (Homo sapiens, UniProt P13612+P26010)
# Sequence (P13612 34-1032): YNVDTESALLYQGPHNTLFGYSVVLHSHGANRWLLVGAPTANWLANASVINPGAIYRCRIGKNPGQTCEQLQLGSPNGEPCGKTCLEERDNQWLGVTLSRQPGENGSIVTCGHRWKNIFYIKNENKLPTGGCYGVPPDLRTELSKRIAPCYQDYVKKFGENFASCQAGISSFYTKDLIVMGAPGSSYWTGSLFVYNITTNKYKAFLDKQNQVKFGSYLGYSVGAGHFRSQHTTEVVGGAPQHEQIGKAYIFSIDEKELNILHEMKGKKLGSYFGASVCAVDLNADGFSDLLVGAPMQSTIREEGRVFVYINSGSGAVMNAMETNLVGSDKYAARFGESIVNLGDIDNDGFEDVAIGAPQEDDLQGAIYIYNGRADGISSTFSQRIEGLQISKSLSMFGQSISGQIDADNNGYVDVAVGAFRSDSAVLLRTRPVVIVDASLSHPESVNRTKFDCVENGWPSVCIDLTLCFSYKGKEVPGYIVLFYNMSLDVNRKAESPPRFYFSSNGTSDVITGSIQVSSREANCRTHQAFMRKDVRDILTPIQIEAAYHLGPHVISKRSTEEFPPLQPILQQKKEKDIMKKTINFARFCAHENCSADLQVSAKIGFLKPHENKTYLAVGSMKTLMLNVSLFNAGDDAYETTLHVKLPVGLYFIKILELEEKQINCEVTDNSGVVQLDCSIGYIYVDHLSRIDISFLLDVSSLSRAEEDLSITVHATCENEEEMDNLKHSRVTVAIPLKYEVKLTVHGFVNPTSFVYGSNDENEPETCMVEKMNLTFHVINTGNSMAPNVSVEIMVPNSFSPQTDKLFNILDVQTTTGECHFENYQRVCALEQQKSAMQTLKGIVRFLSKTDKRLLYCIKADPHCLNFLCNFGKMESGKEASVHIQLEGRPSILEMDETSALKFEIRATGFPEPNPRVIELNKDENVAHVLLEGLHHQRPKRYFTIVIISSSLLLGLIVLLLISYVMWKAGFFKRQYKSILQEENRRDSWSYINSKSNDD
# Sequence (P26010 20-798): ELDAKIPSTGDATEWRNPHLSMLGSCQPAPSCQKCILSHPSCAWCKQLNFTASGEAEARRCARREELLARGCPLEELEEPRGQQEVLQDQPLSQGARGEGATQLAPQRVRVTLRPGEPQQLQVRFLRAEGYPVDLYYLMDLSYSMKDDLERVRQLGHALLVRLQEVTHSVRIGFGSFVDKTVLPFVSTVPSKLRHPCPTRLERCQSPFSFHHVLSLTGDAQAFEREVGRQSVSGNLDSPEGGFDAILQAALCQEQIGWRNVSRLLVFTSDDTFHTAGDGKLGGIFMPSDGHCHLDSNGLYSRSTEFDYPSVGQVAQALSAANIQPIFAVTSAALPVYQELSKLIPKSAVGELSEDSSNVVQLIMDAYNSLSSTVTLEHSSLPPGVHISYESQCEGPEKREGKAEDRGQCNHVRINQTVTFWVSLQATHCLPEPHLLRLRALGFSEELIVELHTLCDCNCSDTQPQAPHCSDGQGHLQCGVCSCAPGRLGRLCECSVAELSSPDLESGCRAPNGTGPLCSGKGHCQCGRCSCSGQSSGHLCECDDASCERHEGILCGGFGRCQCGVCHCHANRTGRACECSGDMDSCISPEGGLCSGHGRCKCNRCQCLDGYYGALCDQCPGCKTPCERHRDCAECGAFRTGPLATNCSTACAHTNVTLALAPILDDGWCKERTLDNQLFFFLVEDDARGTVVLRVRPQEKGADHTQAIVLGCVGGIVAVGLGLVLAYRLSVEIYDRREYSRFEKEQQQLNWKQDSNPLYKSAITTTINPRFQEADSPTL
# Test: α4β7-MAdCAM Cell Adhesion Assay (RPMI 8866 human cells)
# Type: cell-based
# Design: host or cells: RPMI 8866 human B lymphoblastoid cells
# Conditions: Table 3-B, Potency (α4β7); range classes; read-out: α4β7 cell (Hu) IC50
# In short: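 Washed RPMI 8866 cells (200,000/well) in DMEM with 0.1% BSA, 10 mM HEPES pH 7, 1 mM MnCl2 adhered to rh MAdCAM-1/Fc-coated wells with serially diluted peptides, 30-45 min at 37 °C. After three washes, bound cells quantified by MTT, A570, cell-free background subtracted for dose response.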
row,SMILES,IC50 [nM]
1,"CC(=O)N[C@@H]1C(=O)N(C)[C@@H](CCCNC(=N)N)C(=O)N[C@@H](CO)C(=O)N[C@@H](CC(=O)O)C(=O)N[C@@H]([C@@H](C)O)C(=O)N[C@@H](CC(C)C)C(=O)N[C@H](C(=O)N[C@@H](Cc2c[nH]c3ccccc23)C(=O)N2Cc3ccccc3C[C@H]2C(=O)N[C@H](CCCCNC(=O)COCC(=O)NCCCC[C@@H](NC(=O)[C@@H]2Cc3ccccc3CN2C(=O)[C@H](Cc2c[nH]c3ccccc23)NC(=O)[C@H]2NC(=O)[C@H](CC(C)C)NC(=O)[C@H]([C@@H](C)O)NC(=O)[C@H](CC(=O)O)NC(=O)[C@H](CO)NC(=O)[C@H](CCCNC(=N)N)N(C)C(=O)[C@@H](NC(C)=O)C(C)(C)SSC2(C)C)C(N)=O)C(N)=O)C(C)(C)SSC1(C)C [compound 109] (I: Ac-[Pen][NMeR]SDTL[Pen]W[Tic][dK]-NH2 / II: Ac-[Pen][NMeR]SDTL[Pen]W[Tic][dK]-NH2; disulfide I:1-I:7, II:1-II:7; linker I:10-II:10 via Diglycolyl)",100 to 500
2,"CC(=O)N[C@@H]1C(=O)N(C)[C@@H](CCCNC(=N)N)C(=O)N[C@@H](CO)C(=O)N[C@@H](CC(=O)O)C(=O)N[C@@H]([C@@H](C)O)C(=O)N[C@@H](CC(C)C)C(=O)N[C@H](C(=O)N[C@@H](Cc2c[nH]c3ccccc23)C(=O)N[C@H](Cc2c[nH]c3ccccc23)C(=O)N[C@H](CCCCNC(=O)COCC(=O)NCCCC[C@@H](NC(=O)[C@@H](Cc2c[nH]c3ccccc23)NC(=O)[C@H](Cc2c[nH]c3ccccc23)NC(=O)[C@H]2NC(=O)[C@H](CC(C)C)NC(=O)[C@H]([C@@H](C)O)NC(=O)[C@H](CC(=O)O)NC(=O)[C@H](CO)NC(=O)[C@H](CCCNC(=N)N)N(C)C(=O)[C@@H](NC(C)=O)C(C)(C)SSC2(C)C)C(N)=O)C(N)=O)C(C)(C)SSC1(C)C [compound 110] (I: Ac-[Pen][NMeR]SDTL[Pen]W[dW][dK]-NH2 / II: Ac-[Pen][NMeR]SDTL[Pen]W[dW][dK]-NH2; disulfide I:1-I:7, II:1-II:7; linker I:10-II:10 via Diglycolyl)",10 to 25
3,"CC(=O)N[C@@H]1C(=O)N(C)[C@@H](CCCNC(=N)N)C(=O)N[C@@H](CO)C(=O)N[C@@H](CC(=O)O)C(=O)N[C@@H]([C@@H](C)O)C(=O)N[C@@H](CC(C)C)C(=O)N[C@H](C(=O)N[C@@H](Cc2cccc3ccccc23)C(=O)N[C@H](Cc2ccccc2)C(=O)N[C@H](CCCCNC(=O)COCC(=O)NCCCC[C@@H](NC(=O)[C@@H](Cc2ccccc2)NC(=O)[C@H](Cc2cccc3ccccc23)NC(=O)[C@H]2NC(=O)[C@H](CC(C)C)NC(=O)[C@H]([C@@H](C)O)NC(=O)[C@H](CC(=O)O)NC(=O)[C@H](CO)NC(=O)[C@H](CCCNC(=N)N)N(C)C(=O)[C@@H](NC(C)=O)C(C)(C)SSC2(C)C)C(N)=O)C(N)=O)C(C)(C)SSC1(C)C [compound 111] (I: Ac-[Pen][NMeR]SDTL[Pen][1Nal][dF][dK]-NH2 / II: Ac-[Pen][NMeR]SDTL[Pen][1Nal][dF][dK]-NH2; disulfide I:1-I:7, II:1-II:7; linker I:10-II:10 via Diglycolyl)",100 to 500
4,"CC(=O)N[C@@H]1C(=O)N(C)[C@@H](CCCNC(=N)N)C(=O)N[C@@H](CO)C(=O)N[C@@H](CC(=O)O)C(=O)N[C@@H]([C@@H](C)O)C(=O)N[C@@H](CC(C)C)C(=O)N[C@H](C(=O)N[C@@H](Cc2cccc3ccccc23)C(=O)N[C@H](Cc2c[nH]cn2)C(=O)N[C@H](CCCCNC(=O)COCC(=O)NCCCC[C@@H](NC(=O)[C@@H](Cc2c[nH]cn2)NC(=O)[C@H](Cc2cccc3ccccc23)NC(=O)[C@H]2NC(=O)[C@H](CC(C)C)NC(=O)[C@H]([C@@H](C)O)NC(=O)[C@H](CC(=O)O)NC(=O)[C@H](CO)NC(=O)[C@H](CCCNC(=N)N)N(C)C(=O)[C@@H](NC(C)=O)C(C)(C)SSC2(C)C)C(N)=O)C(N)=O)C(C)(C)SSC1(C)C [compound 112] (I: Ac-[Pen][NMeR]SDTL[Pen][1Nal][dH][dK]-NH2 / II: Ac-[Pen][NMeR]SDTL[Pen][1Nal][dH][dK]-NH2; disulfide I:1-I:7, II:1-II:7; linker I:10-II:10 via Diglycolyl)",50 to 100
